Several values for one entry are separate records, joined by “and”; a condition that tells them apart may be missing. Equal entries are not always repeated. Ends that are not written are not given here.
Legend:
human C1q = test: Reverse ELISA: inhibition of PAP immune complex binding to C1q coated plates; conditions: for OD 405 nm: PAP pre-incubated with peptide or C1q one hour, C1q coated plates, lower OD = more inhibition, positive control 2.355
Excerpt: (§1) For this reason, a “reverse ELISA” technique has been used to assess binding of the Fc region to ligands that bind to immune complexed IgG Fc. In a reverse ELISA, the enzyme (e.g., HRP) is not covalently conjugated to the Fc portion of the secondary antibody. Rather, a preformed immune complex of peroxidase-rabbit (or mouse) anti-peroxidase IgG (“PAP” complex) is used. […] In the reverse ELISA system, an Fc CH2-CH3 cleft binding ligand (e.g., purified human C1q) was bound to microwell plates. In the absence of competitor, PAP complexes bound to the immobilized ligand and the reaction between HRP and its substrate produces a signal. This signal was reduced by polypeptides and compounds that inhibited PAP binding to the immobilized ligand.
PAP complexes were formed mixing 2 μl of rabbit anti-peroxidase (Sigma Chemicals, St. Louis, Mo.; Cat. No. P7899) with 50 μl of peroxidase (Sigma-Aldrich, Cat. No. P6782) in 1 ml distilled water. PAP (100 μl) were pre-incubated with 100 μl of peptide for one hour, 100 μl were pre-incubated with 100 μl of peptide or human C1q (Quidel Corp., San Diego, Calif.) for one hour. The C1q/PAP and peptide/PAP mixtures (100 μl) were incubated with C1q coated plates for 30 minutes. After washing, plates were incubated with ATBS (Quidel Corp.) for 15 minutes and read at 405 nm.

FcγIIIa = test: FcγR reverse ELISA: inhibition of PAP immune complex binding (Table 2); conditions: PAP/peptide mixture on FcγR coated plates; positive control 1.588
Excerpt: as §1
(§2) Once the reverse ELISA protocol was established using the C1q assay, the assay was redesigned using FcγIIa, FcγIIb and FcγIII in place of C1q. Highly purified FcγIIa, FcγIIb and FcγIII (R&D Systems, Minneapolis, Minn.) were immunoadsorbed onto plastic microwells. After optimizing the FcγR reverse ELISA system, simple competitive inhibition experiments using polypeptides provided herein were conducted to investigate their ability to inhibit binding of immune complexes to purified FcγR.
(§3) Falcon microtiter plates were coated with 1:10 dilutions of highly purified FcγIIa, FcγIIb and FcγIII and incubated for 24 hours. The plates were washed and then blocked with 5×BSA blocking solution (Alpha Diagnostic International, San Antonio, Tex.) for 24 hours. PAP immune complexes were formed as described in Example 1. PAP (100 μl) were pre-incubated with 100 μl of peptide for one hour. PAP/peptide mixtures were added to the FcγR coated plates and incubated for one hour. After washing, plates were incubated with ABTS substrate (Quidel Corp.) for 15 minutes and read at 405 nm.

FcγIIa (R131 allele) = test: as above; conditions: PAP/peptide mixture on FcγR coated plates; positive control 1.599
Excerpt: as §1, §2, §3

FcγIIb = test: as above; conditions: PAP/peptide mixture on FcγR coated plates; positive control 1.394
Excerpt: as §1, §2, §3

mice having induced ITP = test: In vivo treatment of ITP induced by rabbit anti-platelet antibody, platelet counting by flow cytometry; parameters: species or system CD-1 mice; conditions: for Platelet counts, individual mice: intraperitoneal, 24 hours; for Platelet counts, mean: 3 mice, ITP alone mean 170.7, Nil 1016; for Effect on induced ITP: first experiment, Table 4, 10× and 100× molar
Protocol: Mice: CD-1 mice approximately 6-8 weeks of age were obtained from Charles River (Montreal). The animals were housed 3-5 per cage in filter-topped cages. The temperature and relative humidity were maintained at […] and 35-70%, respectively, and a 12 hour light/dark cycle was used. The mice were fed rodent chow and water ad libitum.
Anti-platelet antibodies to induce ITP: A rabbit anti-platelet antibody (Inter-Cell Technologies, Inc., Jupiter, Fla.; Cat. No. A31440) was used to induce ITP. Each mouse received 10 μl antibody-containing serum, diluted with 190 μl PBS for injection, such that the final injection volume was 200 μl for all groups injected with anti-platelet antibody.
On the day of use, one vial of rabbit anti-platelet antibody was removed from the freezer, placed in a 22° C. water bath, and shaken. The tube was checked every 30 seconds, and when it was completely thawed it was placed in a microcentrifuge and centrifuged at 10,000×g (11,000 rpm) for 10 minutes at 4° C. The supernatant fluid was transferred to a new tube and the pellet was discarded. The supernatant was placed on ice until used or diluted, as appropriate. Unused portions of the sera were discarded.
Therapeutic treatment of ITP: IVIg was used as a standard control treatment for the ITP induced by the rabbit anti-platelet antibody. The IVIg was Gamimmune® N, 10%. Treatment with IVIg consisted of an intraperitoneal injection of 50 mg (500 μl) IVIg, a dose that was equivalent to a dose of 2,000 mg/kg body weight.
Platelet enumeration: All mice were bled via the saphenous vein. 50 μL of blood were collected into 450 μL PBS/1% EDTA. The blood was further diluted in PBS/1% EDTA. Platelets were enumerated by flow cytometry with a Guava microcapillary cytometer (Guava EasyCyteMini, Guava Technologies, Inc., Hayward, Calif.), using forward scatter (FSC) versus side scatter (SSC) to gate platelets.
Peptides used to inhibit ITP: Peptides having the amino acid sequences set forth in SEQ ID NO:2 ([…]), SEQ ID NO:20 ([…]), and a control peptide in which Trp7, Val13 and Trp14 of SEQ ID NO:20 were replaced by alanines ([…]; SEQ ID NO:57) were tested for their ability to inhibit ITP. Alanine substation of Val13 and Trp14 causes a decrease in binding affinity (measured by ΔΔG, where G=Gibbs Energy) of greater than 1,000 fold.
Peptides were stored at −20° C. until the day of use. On the day of use, peptides were removed from the freezer, placed in a 22° C. water bath, shaken, and checked every 30 seconds for thawing. When thawed, the peptides were placed on ice until use. For samples that received a 10× dose of peptide, the following were sequentially added to a 1.5 ml polypropylene Eppendorf tube: 623 μl PBS (pH 7.22), 35 μL rabbit anti-plaletet IgG, and 42 μl peptide, with mixing after each addition. For samples having a 100× dose of peptide, the following were added sequentially to a 1.5 ml polypropylene Eppendorf tube: 245 μl PBS (pH 7.22), 35 μL rabbit anti-plaletet IgG, and 420 μl peptide, with mixing after each addition. The peptides were incubated for at least 30 minutes at 22° C. prior to injection into mice. (A 15 minute incubation in the laboratory, transport of the mixtures to the Vivarium, and injection took roughly an additional 30 minutes.)
The final volume of each peptide mixture was 700 μL, which was sufficient for injection of 3 mice (200 μl/mouse, plus 100 μl to cover dead volume). For the 10× dose/mouse of peptide, 12 μg of peptide (12 μl of 1 mg/ml solution) was mixed with 100 μg of the rabbit anti-platelet IgG (10 μl of 10 mg/ml solution). The volume of 700 μl was about 3.5× the volume injected per mouse (200 μl). To obtain the dose of peptide and rabbit IgG for the 700 μl final volume, dose of peptide or Rabbit IgG per mouse was multiplied by 3.5 (e.g., 12 μl peptide/mouse×3.5=42 μl, 10 μl Rabbit IgG/mouse×3.5=35 μl). PBS (623 μl, pH 7.22) was added to make up the final volume 700 μl. […]

[1] = target: PAP complex: preformed immune complex of peroxidase and rabbit anti-peroxidase IgG (horseradish) (UniProt P00433); test: reverse ELISA competition: PAP pre-incubated with peptide, then on C1q-coated plate; signal is PAP left bound to immobilised human C1q (lower = more inhibition)
[2] = target: PAP complex: preformed immune complex of peroxidase and rabbit anti-peroxidase IgG (horseradish) (UniProt P00433); test: reverse ELISA competition: PAP pre-incubated with peptide, then on plate coated with FcγIIb; signal is PAP left bound to the receptor
[3] = target: PAP complex: preformed immune complex of peroxidase and rabbit anti-peroxidase IgG (horseradish) (UniProt P00433); test: reverse ELISA competition: PAP pre-incubated with peptide, then on plate coated with FcγIIIa; signal is PAP left bound to the receptor
[4] = target: PAP complex: preformed immune complex of peroxidase and rabbit anti-peroxidase IgG (horseradish) (UniProt P00433); test: reverse ELISA competition: PAP pre-incubated with peptide, then on plate coated with FcγIIa (R131 allele); signal is PAP left bound to the receptor
[5] = ITP + 10X molar amount of peptide
[6] = ITP + 100X molar amount of peptide

Chain of UniProt P00433 (P00433 31-338, one chain of several): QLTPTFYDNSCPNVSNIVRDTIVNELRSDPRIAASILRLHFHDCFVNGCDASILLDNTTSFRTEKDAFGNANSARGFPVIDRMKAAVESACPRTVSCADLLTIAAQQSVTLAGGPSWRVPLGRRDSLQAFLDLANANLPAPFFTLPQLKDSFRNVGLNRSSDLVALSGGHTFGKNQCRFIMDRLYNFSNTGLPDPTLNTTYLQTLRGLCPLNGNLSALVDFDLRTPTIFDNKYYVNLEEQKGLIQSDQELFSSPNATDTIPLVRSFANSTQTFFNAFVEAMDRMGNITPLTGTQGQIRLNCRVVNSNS

Row | OD 405 nm [1] | OD405 [2] | OD405 [3] | OD405 [4] | Molecule | OD 405 nm (human C1q) | OD405 FcγIIIa (FcγIIIa) | OD405 FcγIIa (R131 allele) (FcγIIa (R131 allele)) | OD405 FcγIIb (FcγIIb) | also measured
1 |  |  |  |  | APPCAFHLGELVWCT (cysteine pairing not given here) [SEQ ID NO:18] | 0.983 | 0.880 | 0.605 | 0.380 | 
2 |  |  |  |  | APPCARHLGELVWCT (cysteine pairing not given here) [SEQ ID NO:16] | 0.567 | 0.709 | 0.956 | 0.768 | Inhibition of C1q binding (ranking in words) (human C1q; summary of Table 1): next best result
3 |  |  |  |  | APPCAWHLGELVWCT (cysteine pairing not given here) [SEQ ID NO:14] | 1.148 | 0.530 | 0.658 | 0.562 | 
4 |  |  |  |  | APPDCAAHLGELAACT [SEQ ID NO:57, reference compound] |  |  |  |  | Platelet counts, individual mice (mice having induced ITP; ITP + 10X molar amount of peptide, listed as CP): 1.99e+11 L⁻¹ and 1.91e+11 L⁻¹ and 1.43e+11 L⁻¹; Platelet counts, mean (mice having induced ITP; [5]): 1.777e+11 L⁻¹; Platelet counts, individual mice (mice having induced ITP; ITP + 100X molar amount of peptide, listed as CP): 1.55e+11 L⁻¹ and 1.6e+11 L⁻¹ and 1.79e+11 L⁻¹; Platelet counts, mean (mice having induced ITP; [6]): 1.647e+11 L⁻¹; Effect on induced ITP (mice having induced ITP): no effect
5 |  |  |  |  | Asp-Cys-Ala-Phe-His-Leu-Gly-Glu-Leu-Val-Trp-Cys-Thr (DCAFHLGELVWCT) [SEQ ID NO:3] | 0.859 | 0.810 | 0.660 | 0.510 | 
6 |  |  |  |  | Asp-Cys-Ala-Trp-His-Leu-Gly-Glu-Leu-Val-Trp-Cys-Thr [SEQ ID NO:2] | 1.100 | 0.741 | 0.561 | 0.532 | Platelet counts, individual mice (mice having induced ITP; ITP + 10X molar amount of peptide, listed as BP): 1.63e+11 L⁻¹ and 1.17e+11 L⁻¹ and 2.33e+11 L⁻¹; Platelet counts, mean (mice having induced ITP; [5]): 1.71e+11 L⁻¹; Platelet counts, individual mice (mice having induced ITP; ITP + 100X molar amount of peptide, listed as BP): 1.55e+11 L⁻¹ and 1.25e+11 L⁻¹ and 1.94e+11 L⁻¹; Platelet counts, mean (mice having induced ITP; [6]): 1.58e+11 L⁻¹; Effect on induced ITP (mice having induced ITP): no effect
7 | 0.859 OD 405 nm | 0.51 OD405 | 0.81 OD405 | 0.66 OD405 | DCAFHLGELVWCT [Peptide … (SEQ ID NO:3)] |  |  |  |  | 
8 | 0.983 OD 405 nm | 0.38 OD405 | 0.88 OD405 | 0.605 OD405 | APPCAFHLGELVWCT [Peptide … (SEQ ID NO:18)] |  |  |  |  | 
9 | 1.15 OD 405 nm | 0.562 OD405 | 0.53 OD405 | 0.658 OD405 | APPCAWHLGELVWCT [Peptide … (SEQ ID NO:14)] |  |  |  |  | 
10 | 0.567 OD 405 nm | 0.768 OD405 | 0.709 OD405 | 0.956 OD405 | APPCARHLGELVWCT [Peptide … (SEQ ID NO:16)] |  |  |  |  | 
